Tests used:
Leishmania major = assay: In vitro susceptibility of Leishmania major amastigotes in murine monocyte-derived bone marrow macrophages (Giemsa counting); type: cell-based; settings: for multiplication index: analysis of variance; for percentage of macrophages infected: by day five; for number of amastigotes found in infected cells: day five
Experimental: Monocyte-derived bone marrow macrophages from C57B1/6 naïve mice. These cells were harvested from the femoral bones and incubated for 7 days at 37° C. in 5% CO2 in complete tissue culture medium [DMEM, 20% heat inactivated fetal calf serum, 1% Penicillin/streptomycin, 1% glutamine, 1% pyruvate, 30% L-cell line supernatant]. After 7 days, 50×10^6 macrophages per mouse donor were recovered from the cultures. The cells were then washed and 1×10^6 macrophages were added to the wells (16 mm diameter) of a 24 well plate at the bottom of which was placed a round glass cover slip. The macrophages were added to the wells in 300 μl of culture medium consisting of RPMI 1640,10% heat inactivated fetal calf serum, 1% Penicillin/streptomycin, 1% glutamine, 2.5% BEPES, and 0.1% 2-mercaptoethanol.
Cryopreserved amastigotes of Leishmania major (Friedlin strain), originally obtained from footpad lesions of SCID mice, were thawed, washed with medium and counted in a hemocytometer, then re-suspended in complete medium and added to the wells at a concentration of 1 million per well (amastigote/macrophage ratio 1:1) in 50 μl of complete medium. The total volume of media in each well was […].
Amphotericin B (Fungizone, Gibco) was reconstituted from a lyophilized form and azithromycin (Zithromax, Pfizer) was prepared from a 500 mg-powder vial for IV use; both antibiotics were reconstituted in sterile water and diluted in complete medium to the desired concentration. Amphotericin B was used at a concentration of 1 mg/ml and azithromycin at concentrations of 0.1, 0.6, 3 and 15 μg/ml.
After mixing the macrophages with the amastigotes, the plates were incubated for 3 hrs. at 37° C. in 5% Co2; at that point the plates were washed with PBS to eliminate non-adherent macrophages and free amastigotes. Medium with or without antibiotics was added to the wells at a final volume of 3 ml. Some of the cultures were removed from the wells at this point and placed in petri dishes containing 50 mls of medium with antibiotics. Amphotericin B was used as a positive control group in all the experiments. The cultures were maintained at 37° C. in 5% CO2 and culture media and antibiotics were changed daily.
Before adding antibiotics on day 0 and on days 3 and 5, cover slips were recovered from the wells and petri dishes, immediately fixed and stained with Giemsa for counting, which was performed using 1000X magnification with immersion oil. All the experiments were carried out in duplicate.
Two cover slips were recovered from each time point and the data obtained for each slide was as follows: 200 to 300 macrophages were counted, number of infected macrophages per 100 macrophages and number of amastigotes per 100 macrophages was determined. The results reported are the mean values of those two parasite counts. Experiments were repeated a minimum of two times.

macrophages = settings: levels versus that obtained in the serum (Gladue et al. 1989); cited from earlier work
[1] = amphotericin B at 1 mg/ml, Day 0 (before adding antibiotics)
[2] = amphotericin B at 1 mg/ml, Day 3
[3] = amphotericin B at 1 mg/ml, Day 5
[4] = 0.1 μg/ml azithromycin, Day 0 (before adding antibiotics)
[5] = 0.6 μg azithromycin, volume 3 ml, five days
[6] = 0.6 μg/ml azithromycin, Day 0 (before adding antibiotics)
[7] = 3.0 μg azithromycin, volume 3 ml, five days
[8] = 3.0 μg/ml azithromycin, Day 0 (before adding antibiotics)
[9] = 15 μg/ml azithromycin, Day 0 (before adding antibiotics)

SMILES: C[C@@H]1[C@H](O)[C@@H](C)/C=C/C=C/C=C/C=C/C=C/C=C/C=C/[C@H](O[C@@H]2O[C@H](C)[C@@H](O)[C@H](N)[C@@H]2O)C[C@@H]2O[C@](O)(C[C@@H](O)C[C@@H](O)[C@H](O)CC[C@@H](O)C[C@@H](O)CC(=O)O[C@H]1C)C[C@H](O)[C@H]2C(=O)O [Amphotericin B]
- multiplication index (Leishmania major; 1 mg/ml of amphotericin B): significant reduction
- Number of Amastigotes/100 macrophages (Leishmania major; [1]): 27 /100 macrophages
- Percent Infected Macrophages (Leishmania major; [1]): 16%
- Number of Amastigotes/100 macrophages (Leishmania major; [2]): 1 /100 macrophages
- Percent Infected Macrophages (Leishmania major; [2]): 1%
- Number of Amastigotes/100 macrophages (Leishmania major; [3]): 0 /100 macrophages
- Percent Infected Macrophages (Leishmania major; [3]): 0%
- percentage of macrophages infected (Leishmania major; 1 mg/ml of amphotericin B): significant decrease
- number of amastigotes found in infected cells (Leishmania major; 1 mg/ml of amphotericin B): significant decrease

SMILES: CC[C@H]1OC(=O)[C@H](C)[C@@H](O[C@H]2C[C@@](C)(OC)[C@@H](O)[C@H](C)O2)[C@H](C)[C@@H](O[C@@H]2O[C@H](C)C[C@H](N(C)C)[C@H]2O)[C@](C)(O)C[C@@H](C)CN(C)[C@H](C)[C@@H](O)[C@]1(C)O [azithromycin]
- Number of Amastigotes/100 macrophages (Leishmania major; [4]): 27 /100 macrophages
- Percent Infected Macrophages (Leishmania major; [4]): 16%
- Number of Amastigotes/100 macrophages (Leishmania major; 0.1 μg/ml azithromycin, Day 3): 10 /100 macrophages
- Percent Infected Macrophages (Leishmania major; 0.1 μg/ml azithromycin, Day 3): 8%
- Number of Amastigotes/100 macrophages (Leishmania major; 0.1 μg/ml azithromycin, Day 5): 38 /100 macrophages
- Percent Infected Macrophages (Leishmania major; 0.1 μg/ml azithromycin, Day 5): 24%
- Number of Amastigotes/100 macrophages (Leishmania major; 0.6 μg azithromycin, five days): 11 /100 macrophages
- Number of Amastigotes/100 macrophages (Leishmania major; [5]): 23 /100 macrophages
- Percent Infected Macrophages (Leishmania major; [5]): 17%
- Percent Infected Macrophages (Leishmania major; 0.6 μg azithromycin, volume 50 ml, five days): 10%
- Number of Amastigotes/100 macrophages (Leishmania major; [6]): 27 /100 macrophages
- Percent Infected Macrophages (Leishmania major; [6]): 16%
- Number of Amastigotes/100 macrophages (Leishmania major; 0.6 μg/ml azithromycin, Day 3): 14 /100 macrophages
- Percent Infected Macrophages (Leishmania major; 0.6 μg/ml azithromycin, Day 3): 28%
- Number of Amastigotes/100 macrophages (Leishmania major; 0.6 μg/ml azithromycin, Day 5): 11 /100 macrophages
- Percent Infected Macrophages (Leishmania major; 0.6 μg/ml azithromycin, Day 5): 17%
- Number of Amastigotes/100 macrophages (Leishmania major; 3.0 μg azithromycin, five days): 13 /100 macrophages
- Number of Amastigotes/100 macrophages (Leishmania major; [7]): 11 /100 macrophages
- Percent Infected Macrophages (Leishmania major; [7]): 9%
- Percent Infected Macrophages (Leishmania major; 3.0 μg azithromycin, volume 50 ml, five days): 11%
- Number of Amastigotes/100 macrophages (Leishmania major; [8]): 27 /100 macrophages
- Percent Infected Macrophages (Leishmania major; [8]): 16%
- Number of Amastigotes/100 macrophages (Leishmania major; 3.0 μg/ml azithromycin, Day 3): 45 /100 macrophages
- Percent Infected Macrophages (Leishmania major; 3.0 μg/ml azithromycin, Day 3): 31%
- Number of Amastigotes/100 macrophages (Leishmania major; 3.0 μg/ml azithromycin, Day 5): 13 /100 macrophages
- Percent Infected Macrophages (Leishmania major; 3.0 μg/ml azithromycin, Day 5): 9%
- Number of Amastigotes/100 macrophages (Leishmania major; [9]): 27 /100 macrophages
- Percent Infected Macrophages (Leishmania major; [9]): 16%
- Number of Amastigotes/100 macrophages (Leishmania major; 15 μg/ml azithromycin, Day 3): 13 /100 macrophages
- Percent Infected Macrophages (Leishmania major; 15 μg/ml azithromycin, Day 3): 10%
- Number of Amastigotes/100 macrophages (Leishmania major; 15 μg/ml azithromycin, Day 5): 12 /100 macrophages
- Percent Infected Macrophages (Leishmania major; 15 μg/ml azithromycin, Day 5): 9%
- multiplication index (Leishmania major; 0.6-15 μg/ml of azithromycin): significant reduction
- ability to limit the replication of L. major (multiplication index) compared with 1 mg/ml of amphotericin B (Leishmania major; 3 and 15 μg/ml of azithromycin): statistically equal
- 50% effective dose (ED50) (Leishmania major; L. major in murine macrophages in vitro): < 0.6 µg/mL
- percentage of macrophages infected (Leishmania major; 0.6-15 μg/ml of azithromycin): significant decrease
- number of amastigotes found in infected cells (Leishmania major; 3.0-15 μg/ml of azithromycin): significant decrease
- drug accumulation in the tissue cells, especially in macrophages, relative to serum (macrophages): 110 times

Source: patent US20020049167A1, “Azithromycin as a therapeutic agent for infections with leishmania parasites” (priority 2000, published 2002)
